Data taken from patent US20110251160A1 (priority 2008, published 2011).
“And” between values parts separate entries of the source, which are not always exact repeats. Identical values can stand only once. Like-named read-outs stand apart in the source and are kept apart here.

Tests used:
[1] = test system: patients with chronic atrial fibrillation; experiment: PETRO study, phase 2 12-week dose finding study; type: in vivo, human; conditions: in vivo
From the text: Primary endpoints were bleeding events and changes in D-dimer. […] Minor bleeding was dose related.

[2] = test system: patients with atrial fibrillation at risk of stroke; conditions: for Stroke, systemic embolism, pulmonary embolism, myocardial infarction death or major bleed, Rate / Stroke, systemic embolism, pulmonary embolism, myocardial infarction death or major bleed, RR: net benefit
From the text: Median follow-up was 2.0 years and the primary outcome was stroke or systemic embolism.
Patients were recruited from 951 clinical centers in 44 countries. In brief, patients were eligible if they had atrial fibrillation documented on electrocardiogram at screening or within 6 months; and at least one of the following: prior stroke or transient ischemic attack; left ventricular ejection fraction less than 40%; New York Heart Association heart failure symptoms of Class 2 or greater within 6 months; age at least 75 years; or age at least 65 years with diabetes mellitus, hypertension or coronary artery disease.
The time in therapeutic range was calculated by the method of Rosendaal (Rosendaal F R, et al., A method to determine the optimal intensity of oral anticoagulant therapy, Thromb Haemost, 1993, 69:236-239), excluding INRs from the first week and after discontinuations. […] Concomitant use of aspirin (less than 100 mg/day) or other antiplatelet agents was allowed.
Liver function testing was performed monthly during the first year of follow-up.
The primary study outcome was stroke or systemic embolism. The primary safety outcome was major hemorrhage. Secondary outcomes were stroke, systemic embolism and death. Other outcomes were myocardial infarction, pulmonary embolism, transient ischemic attacks, and hospitalizations. The primary net benefit-risk outcome was the composite of stroke, systemic embolism, pulmonary embolism, myocardial infarction, death or major hemorrhage. Stroke was defined as sudden onset of focal neurological deficit consistent with the territory of a major cerebral artery and categorized as ischemic, hemorrhagic or unspecified. Hemorrhagic transformation of ischemic stroke was not considered as hemorrhagic stroke. Intracranial hemorrhage included hemorrhagic stroke and sub-dural or sub-arachnoid hemorrhage. Systemic embolism was an acute vascular occlusion of an extremity or organ documented by imaging, surgery or autopsy. Major bleeding was defined as a reduction in hemoglobin level of at least […] or transfusion of at least 2 units of blood or symptomatic bleeding in a critical area or organ. Life-threatening bleeding was a subset of major bleeding that included fatal bleeding, symptomatic intracranial bleeding, bleeding with hemoglobin decrease of more than […] or requiring transfusion of more than 4 units of blood or requiring inotropic agents or necessitating surgery. All other bleeding was considered minor.
All primary and secondary outcome events were blindly and doubly adjudicated. An international team of adjudicators reviewed documents in local languages after blinding; or documents were translated by a independent group and blinded centrally. All transient ischemic attacks were reviewed to ensure that strokes had not been missed. To detect possible unreported events, symptom questionnaires were regularly administered to patients, and adverse events and hospitalization reports were scrutinized for unreported primary or secondary outcomes.
If maximum of the two p-values was greater than 0.025, the minimum of the two p-values must be less than 0.0125, one-sided, to claim statistical significance. All analyses were based on intention-to-treat.

Plasma protein binding = type: in vitro ADME; conditions: read-out: Bound to plasma proteins
[3] = test system: activated partial thromboplastin time (aPTT), ecarin clotting time, and thrombin clotting time; experiment: Clotting time prolongation
[4] = test system: patients with atrial fibrillation
Method: PETRO-Ex began while the PETRO study was ongoing and investigators were initially kept blinded to patient treatment group until PETRO was completed. Unblinding investigators to patient treatment was possible thereafter.
Data were summarized descriptively; no hypothesis was to be tested. Events were analyzed on the basis of the treatment at onset. Incidences were reported as number of patients with events as well as normalized to 100 patient years on the respective treatment.
Patients who completed PETRO on 50 mg b.i.d. were switched to 150 mg q.d. upon entry in the PETRO-Ex study (N=93 patients). […] Patients who were down titrated to 50 mg q.d. based on a glomerular filtration rate ≦50 mL/min during PETRO were excluded from the long-term trial; patients down-titrated in other dose levels remained on the q.d. treatment at that dose.
The former is represented by the number of thromboembolic events per 100 years, the latter by the number of bleeding events per 100 years.

[5] = in vivo; cited from earlier work
[6] = Clinical pharmacokinetics and pharmacodynamics of dabigatran etexilate; conditions: human, plasma, oral
[7] = individual patients with LFT abnormalities, one table line per patient

For `[H]/N=C(/N)c1ccc(NCc2nc3cc(C(=O)N(CCC(=O)O)c4ccccn4)ccc3n2C)cc1` [Dabigatran], the “Change in D-dimer levels” value [1] was “comparable to warfarin”, the “All Death, Rate” value ([2]; Dabigatran 110 mg b.i.d.) was 3.74 /100 Person Years and the “Disabling or Fatal Stroke Modified Rankin 3-6, Rate” value ([2]; Dabigatran 110 mg b.i.d.) was 0.95 /100 Person Years. For the same compound, the “First Hospitalization, Rate” value ([2]; Dabigatran 110 mg b.i.d.) was 25.1 /100 Person Years, the “Myocardial Infarction, Rate” value ([2]; Dabigatran 110 mg b.i.d.) was 0.73 /100 Person Years and the “Non-disabling Stroke Modified Rankin 0-2, Rate” value ([2]; Dabigatran 110 mg b.i.d.) was 0.51 /100 Person Years. For the same compound, the “Pulmonary embolism, Rate” value ([2]; Dabigatran 110 mg b.i.d.) was 0.12 /100 Person Years, the “Stroke or systemic embolism, Rate” value ([2]; Dabigatran 110 mg b.i.d.) was 1.55 /100 Person Years and the “Stroke, Hemorrhagic, Rate” value ([2]; Dabigatran 110 mg b.i.d.) was 0.12 /100 Person Years. The “Stroke, Rate” value ([2]; Dabigatran 110 mg b.i.d.) was 1.45 /100 Person Years, the “Vascular Death, Rate” value ([2]; Dabigatran 110 mg b.i.d.) was 2.42 /100 Person Years and the “All Death, RR” value ([2]; Dabigatran 110 mg vs. Warfarin) was 0.90. The “Disabling or Fatal Stroke Modified Rankin 3-6, RR” value ([2]; Dabigatran 110 mg vs. Warfarin) was 0.94, the “First Hospitalization, RR” value ([2]; Dabigatran 110 mg vs. Warfarin) was 0.92 and the “Myocardial Infarction, RR” value ([2]; Dabigatran 110 mg vs. Warfarin) was 1.35. The “Non-disabling Stroke Modified Rankin 0-2, RR” value ([2]; Dabigatran 110 mg vs. Warfarin) was 0.87, the “Pulmonary embolism, RR” value ([2]; Dabigatran 110 mg vs. Warfarin) was 1.26 and the “Stroke or systemic embolism, RR” value ([2]; Dabigatran 110 mg vs. Warfarin) was 0.91. For the same compound, the “Stroke, Hemorrhagic, RR” value ([2]; Dabigatran 110 mg vs. Warfarin) was 0.31, the “Stroke, Ischemic or Unspecified, RR” value ([2]; Dabigatran 110 mg vs. Warfarin) was 1.12 and the “Stroke, RR” value ([2]; Dabigatran 110 mg vs. Warfarin) was 0.92. The “Vascular Death, RR” value ([2]; Dabigatran 110 mg vs. Warfarin) was 0.90, the “All Death, Rate” value ([2]; Dabigatran 150 mg b.i.d.) was 3.63 /100 Person Years and the “Disabling or Fatal Stroke Modified Rankin 3-6, Rate” value ([2]; Dabigatran 150 mg b.i.d.) was 0.67 /100 Person Years. For the same compound, the “First Hospitalization, Rate” value ([2]; Dabigatran 150 mg b.i.d.) was 26.7 /100 Person Years, the “Myocardial Infarction, Rate” value ([2]; Dabigatran 150 mg b.i.d.) was 0.74 /100 Person Years and the “Non-disabling Stroke Modified Rankin 0-2, Rate” value ([2]; Dabigatran 150 mg b.i.d.) was 0.36 /100 Person Years. For the same compound, the “Pulmonary embolism, Rate” value ([2]; Dabigatran 150 mg b.i.d.) was 0.15 /100 Person Years, the “Stroke or systemic embolism, Rate” value ([2]; Dabigatran 150 mg b.i.d.) was 1.11 /100 Person Years and the “Stroke, Hemorrhagic, Rate” value ([2]; Dabigatran 150 mg b.i.d.) was 0.10 /100 Person Years. For the same compound, the “Stroke, Ischemic or Unspecified, Rate” value ([2]; Dabigatran 150 mg b.i.d.) was 0.92 /100 Person Years, the “Stroke, Rate” value ([2]; Dabigatran 150 mg b.i.d.) was 1.01 /100 Person Years and the “Vascular Death, Rate” value ([2]; Dabigatran 150 mg b.i.d.) was 2.27 /100 Person Years. The “All Death, RR” value ([2]; Dabigatran 150 mg vs. 110 mg) was 0.97, the “Disabling or Fatal Stroke Modified Rankin 3-6, RR” value ([2]; Dabigatran 150 mg vs. 110 mg) was 0.70 and the “First Hospitalization, RR” value ([2]; Dabigatran 150 mg vs. 110 mg) was 1.06. The “Myocardial Infarction, RR” value ([2]; Dabigatran 150 mg vs. 110 mg) was 1.02, the “Non-disabling Stroke Modified Rankin 0-2, RR” value ([2]; Dabigatran 150 mg vs. 110 mg) was 0.71 and the “Pulmonary embolism, RR” value ([2]; Dabigatran 150 mg vs. 110 mg) was 1.27. For the same compound, the “Stroke or systemic embolism, RR” value ([2]; Dabigatran 150 mg vs. 110 mg) was 0.72, the “Stroke, Hemorrhagic, RR” value ([2]; Dabigatran 150 mg vs. 110 mg) was 0.85 and the “Stroke, Ischemic or Unspecified, RR” value ([2]; Dabigatran 150 mg vs. 110 mg) was 0.68. The “Stroke, RR” value ([2]; Dabigatran 150 mg vs. 110 mg) was 0.70, the “Vascular Death, RR” value ([2]; Dabigatran 150 mg vs. 110 mg) was 0.94 and the “All Death, RR” value ([2]; Dabigatran 150 mg vs. Warfarin) was 0.88. For the same compound, the “Disabling or Fatal Stroke Modified Rankin 3-6, RR” value ([2]; Dabigatran 150 mg vs. Warfarin) was 0.66, the “First Hospitalization, RR” value ([2]; Dabigatran 150 mg vs. Warfarin) was 0.97 and the “Myocardial Infarction, RR” value ([2]; Dabigatran 150 mg vs. Warfarin) was 1.38. For the same compound, the “Non-disabling Stroke Modified Rankin 0-2, RR” value ([2]; Dabigatran 150 mg vs. Warfarin) was 0.62, the “Pulmonary embolism, RR” value ([2]; Dabigatran 150 mg vs. Warfarin) was 1.61 and the “Stroke or systemic embolism, RR” value ([2]; Dabigatran 150 mg vs. Warfarin) was 0.66. For the same compound, the “Stroke, Hemorrhagic, RR” value ([2]; Dabigatran 150 mg vs. Warfarin) was 0.26, the “Stroke, Ischemic or Unspecified, RR” value ([2]; Dabigatran 150 mg vs. Warfarin) was 0.76 and the “Stroke, RR” value ([2]; Dabigatran 150 mg vs. Warfarin) was 0.64. The “Vascular Death, RR” value ([2]; Dabigatran 150 mg vs. Warfarin) was 0.84, the “Mortality rate, death from any cause” value ([2]; dabigatran 110 mg twice daily) was 3.74 % per year and the “Rate of hemorrhagic stroke” value ([2]; dabigatran 110 mg twice daily) was 0.12 % per year. For the same compound, the “Rate of myocardial infarction” value ([2]; dabigatran 110 mg twice daily) was 0.73 % per year, the “Rate of net benefit-risk outcome (major vascular events, major bleeding and death)” value ([2]; dabigatran 110 mg twice daily) was 7.37 % per year and the “Rate of the primary outcome, stroke or systemic embolism” value ([2]; dabigatran 110 mg twice daily) was 1.55 % per year. For the same compound, the “Mortality rate, death from any cause” value ([2]; dabigatran 150 mg twice daily) was 3.63 % per year, the “Rate of hemorrhagic stroke” value ([2]; dabigatran 150 mg twice daily) was 0.10 % per year and the “Rate of myocardial infarction” value ([2]; dabigatran 150 mg twice daily) was 0.74 % per year. For the same compound, the “Rate of net benefit-risk outcome (major vascular events, major bleeding and death)” value ([2]; dabigatran 150 mg twice daily) was 7.22 % per year, the “Rate of the primary outcome, stroke or systemic embolism” value ([2]; dabigatran 150 mg twice daily) was 1.11 % per year and the Hepatotoxicity ([2]; human, in vivo) was “no evidence of hepatotoxicity”. For the same compound, the “Stroke, systemic embolism, pulmonary embolism, myocardial infarction death or major bleed, Rate” value ([2]; Dabigatran 110 mg b.i.d.) was 7.37 /100 Person Years, the “Stroke, systemic embolism, pulmonary embolism, myocardial infarction death or major bleed, RR” value (shortened to “Stroke, systemic embolism … RR”) ([2]; Dabigatran 110 mg vs. Warfarin) was 0.92 and the “Stroke, systemic embolism, pulmonary embolism, myocardial infarction death or major bleed, Rate” value ([2]; Dabigatran 150 mg b.i.d.) was 7.22 /100 Person Years. For the same compound, the “Stroke, systemic embolism … RR” value ([2]; Dabigatran 150 mg vs. 110 mg) was 0.98, the “Stroke, systemic embolism … RR” value ([2]; Dabigatran 150 mg vs. Warfarin) was 0.90 and the fraction unbound (Plasma protein binding) was 0.65 to 0.75. For the same compound, the “Prolongation of aPTT, ecarin clotting time, and thrombin clotting time” value [3] was “dose dependent prolongation”, the “Fatal major bleeds, number” value ([4]; 150 mg b.i.d.) was 4 and the “Fatal major bleeds, number” value ([4]; 300 mg q.d.) was 1. For the same compound, the Fatal bleeding events ([4]; all doses) was 0.5 % per year, the “Fatal major bleeds, number” value ([4]; all doses) was “five” and the Intracranial bleed rate ([4]; all doses) was 0.4 % per year. The “LFT abnormality ALT/ULN” value [4, 7] was >5x xULN (4×) and >5x^# xULN (2×) and >3x xULN (5×) and >3x^# xULN, the “LFT abnormality AST/ULN” value [4, 7] was >5x^# xULN (4×) and >5x xULN (4×) and >3x xULN (5×) and the Serum half-life [5] was 12 to 17 h. The half-life [6] was 12 to 17 h.
